This note sets out measurements from ChEMBL document CHEMBL5727699, “Pyrimido-pyridazinone compounds and methods of use thereof” (2020).

The target of the assay is Tyrosine-protein kinase JAK2 (Homo sapiens, UniProt O60674). Briefly: Thirteen μL of assay buffer in blank and substrate control wells and 13 μL of Enzyme buffer mix in positive and test wells was added. The reaction mixture was incubated for 30 minutes at RT on a plate shaker. […] The reaction plate was incubated for 60 minutes at RT on a plate shaker. The reaction was stopped by adding 40 mM EDTA (10 μL) in buffer. Ten μL of antibody was added to all the wells.

Some results are limits rather than exact numbers.

Tyrosine-protein kinase JAK2, sequence (O60674 whole entry): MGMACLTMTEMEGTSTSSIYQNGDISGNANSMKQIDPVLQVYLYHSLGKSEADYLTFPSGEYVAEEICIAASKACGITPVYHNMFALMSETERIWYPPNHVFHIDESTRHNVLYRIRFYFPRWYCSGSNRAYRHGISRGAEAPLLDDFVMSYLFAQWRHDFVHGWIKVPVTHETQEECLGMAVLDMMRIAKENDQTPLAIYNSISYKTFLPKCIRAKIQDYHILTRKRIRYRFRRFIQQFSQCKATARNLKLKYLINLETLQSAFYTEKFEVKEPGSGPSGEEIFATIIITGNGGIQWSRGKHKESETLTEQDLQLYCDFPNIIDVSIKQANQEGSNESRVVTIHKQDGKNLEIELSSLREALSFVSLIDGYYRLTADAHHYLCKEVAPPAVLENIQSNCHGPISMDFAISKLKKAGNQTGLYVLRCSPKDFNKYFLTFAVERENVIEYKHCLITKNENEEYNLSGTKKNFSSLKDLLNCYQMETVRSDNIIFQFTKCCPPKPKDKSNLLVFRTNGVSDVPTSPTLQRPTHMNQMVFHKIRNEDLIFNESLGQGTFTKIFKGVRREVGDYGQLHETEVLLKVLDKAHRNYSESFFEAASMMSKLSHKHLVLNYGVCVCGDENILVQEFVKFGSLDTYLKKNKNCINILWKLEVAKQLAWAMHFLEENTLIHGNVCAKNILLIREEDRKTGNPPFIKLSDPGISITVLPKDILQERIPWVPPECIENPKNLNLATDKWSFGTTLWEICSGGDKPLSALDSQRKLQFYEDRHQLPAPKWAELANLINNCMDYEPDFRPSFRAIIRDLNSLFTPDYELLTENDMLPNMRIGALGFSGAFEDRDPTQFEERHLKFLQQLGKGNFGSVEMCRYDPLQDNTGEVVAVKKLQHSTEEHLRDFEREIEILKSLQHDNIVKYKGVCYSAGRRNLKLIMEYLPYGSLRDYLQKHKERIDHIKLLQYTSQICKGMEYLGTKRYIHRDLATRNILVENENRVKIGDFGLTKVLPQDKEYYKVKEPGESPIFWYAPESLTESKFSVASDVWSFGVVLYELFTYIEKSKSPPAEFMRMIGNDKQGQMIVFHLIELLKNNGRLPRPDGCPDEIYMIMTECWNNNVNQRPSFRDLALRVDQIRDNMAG

Turning to `CC(C)(C#N)N1CCN(c2ccc(Nc3nc(N4CCCCCC4)nc4cn[nH]c(=O)c34)cc2)CC1`, the IC50 – broadly, the midpoint of a concentration-inhibition curve – was greater than 100 nM.
